Values quoted from earlier work in US6806373B2, “Process for preparing leflunomide form I” (Teva Pharmaceutical Industries Ltd., priority 1999, dated 2004).

What was measured:
[1] = solid form, according to AU-A-78870/98
[2] = according to AU-A-78870/98
[3] = water or mixtures of water and C1-C4 alcohols, acetone or methyl ethyl ketone, even with heating (<40° C.)

Row | Compound | kinetically stable up to (temperature) [1] | dissolution in water compared with Form I [2] | solubility in suspension solvents [3]
1 | Cc1oncc1C(=O)Nc1ccc(C(F)(F)F)cc1 [Form II] | up to 40 °C | more readily dissolves in water than does Form I | 
2 | Cc1oncc1C(=O)Nc1ccc(C(F)(F)F)cc1 [leflunomide] |  |  | poorly soluble
